Like-named read-outs stand apart in the source and are kept apart here.
Tests used:
[1] = molecular target: T1, human carbonic anhydrase (CA) isoform I (Homo sapiens, UniProt P00915); set-up: method as in PMID 28275953, PMID 31124389; conditions: previously reported data; cited from earlier work
[2] = molecular target: T2, human carbonic anhydrase (CA) isoform II (Homo sapiens, UniProt P00918); set-up: method as in PMID 28275953, PMID 31124389; conditions: previously reported data; cited from earlier work
[3] = molecular target: T3, human carbonic anhydrase (CA) isoform VII (Homo sapiens, UniProt P43166); set-up: method as in PMID 28275953, PMID 31124389; conditions: previously reported data; cited from earlier work
[4] = molecular target: T4, human carbonic anhydrase (CA) isoform IV (Homo sapiens, UniProt P22748); set-up: method as in PMID 28275953, PMID 31124389; conditions: previously reported data; cited from earlier work
rats [5] = test system: rats; set-up: method as in PMID 28275953, PMID 31124389; conditions: cited from earlier work
[6] = test system: rat maximal electroshock test (MES); set-up: method as in PMID 28275953, PMID 31124389; conditions: cited from earlier work
[7] = Pharmacokinetics from plasma levels after i.p. administration to rats; type: in vivo, rat; conditions: i.p. 80 mg/kg; for CL/F / Cmax / MRT / Tmax / half-life / Vd/F / AUC(0-inf): male, Sprague Dawley, rat, ip; for Vd/F: read-out: Vss/F; for AUC(0-inf): plasma
Protocol: (§1) The pharmacokinetics (PK) of racemic-MBPC and its two individual enantiomers were studied following i.p. administration (80 mg/kg) to male Sprague Dawley rats weighing approximately 200–250 g, and their major PK parameters were estimated. The PK experiments were approved by the Ethical Committee of the Hebrew University’s Faculty of Medicine. The dose was administered to rats in multisol that is a mixture of propylene glycol, alcohol (EtOH), and water for injection at a ratio of 8:1:1. The study details were as described previously. Plasma and brain levels of racemic-MBPC and its individual enantiomers were monitored at 20, 40, 60, 90, 120, 160, 180, 200, 220, and 260 min after dosing. Two rats were sacrificed at each time point.
(§2) Plasma and brain concentrations of each compound were quantified by an HPLC assay. The HPLC analysis was performed on a system (2695 Separation Module; Waters, Milford, MA, USA) with a photodiode array UV detector (2996 PDA Detector; Waters, Milford, MA, USA) conditioned as follows: Kinetex, 5 u EVO C18 100 A, 1504.6-mm column (PhenomenexVR, Torrance, CA, USA). Linear gradients (5–95% acetonitrile content) with H2O (0.1% formic acid) and acetonitrile were used as the eluents with a flow rate of 1 mL/min at 20 °C. The compounds and the internal standard were detected at 250 nm. Plasma and brain concentrations of MBPC and its two individual enantiomers were quantified as previously described, [29].
(§3) The PK parameters of each compound were calculated by non-compartmental analysis based on statistical moment theory using the PK software Phoenix Winnonlin Tripos L.P. (Pharsight Co., Mountain View, CA, USA) as previously described.

[8] = Pharmacokinetics from brain levels after i.p. administration to rats; type: in vivo, rat; conditions: i.p. 80 mg/kg; for AUCinf / AUC(0-inf) / CL/F / Cmax / MRT / Tmax / half-life / Vd/F: brain levels; for AUCinf / AUC(0-inf): 80 mg/kg; for AUC(0-inf) / Kp / CL/F / Cmax / MRT / Tmax / half-life / Vd/F: male, Sprague Dawley, rat, ip; for Kp: AUCbrain/AUCplasma, read-out: Brain-to-plasma (AUCinf) ratio; for Vd/F: read-out: Vss/F
Protocol: as §1, §2, §3

[9] = Enantiostability: extraction from rat plasma and optical rotation measurement; type: in vitro ADME; conditions: extracted from rat plasma; specific optical rotation compared to initial value
Excerpt: MBPC was not included in such a series. […] The slightly better BPR of (S)-MBPC may contribute to its better rat anticonvulsant ED50 value. MBPC’s BPR values were better than that of (S)-MSPC but lower than those of racemic- and (R)-MSPC [10]. While (R)-MSPC has lower plasma and brain exposure compared to (S)-MSPC, the two MBPC enantiomers had similar brain permeability, with a slightly better BPR value for (S)-MBPC.

[10] = molecular target: T3, human carbonic anhydrase (CA) isoform VII; experiment: Stopped-flow CO2 hydrase assay, CA VII; type: biochemical; conditions: for Ki: means ± SEM of 3 different assays
[11] = molecular target: T1, human carbonic anhydrase (CA) isoform I; experiment: Stopped-flow CO2 hydrase assay, CA I; type: biochemical; conditions: for Ki: means ± SEM of 3 different assays
[12] = molecular target: T2, human carbonic anhydrase (CA) isoform II; experiment: Stopped-flow CO2 hydrase assay, CA II; type: biochemical; conditions: for Ki: means ± SEM of 3 different assays
[13] = molecular target: T4, human carbonic anhydrase (CA) isoform IV; experiment: Stopped-flow CO2 hydrase assay, CA IV; type: biochemical; conditions: means ± SEM of 3 different assays
[14] = Minimal neurotoxicity (TD50) in rats; type: in vivo, rat; conditions: rat, in vivo, po; rats dosed p.o.; read-out: Neurotoxicity-TD50 [95% CI]
Excerpt: (§4) Table 3 Quantitative anticonvulsant and minimal neurotoxicity data (ED50 and TD50 values) and protective indexes (PI) of […] (MBPC) and 3-methylpentyl(4-sulfamoylphenyl)carbamate (MSPC). in rats dosed p.o. or i.p. ^b. | column: Neurotoxicity-TD50 (mg/kg) [95% CI] ^a; Protective Index (PI = TD50/ED50)

rats [15] = experiment: Minimal neurotoxicity (TD50) in rats; type: in vivo, rat; conditions: rats dosed p.o.
Excerpt: as §4

[16] = test system: rat maximal electroshock test (MES); experiment: Rat maximal electroshock (MES) anticonvulsant test; type: in vivo; conditions: po, rats dosed p.o., read-out: MES-ED50 [95% CI]
Protocol: The experiments with the MES model were conducted in male Sprague Dawley rats weighing 100–120 g (Charles River Laboratories, Wilmington, MA, USA) as previously described. Eight rats were tested per dose in the dose–response curve in order to determine the ED50 value of each compound. The experiments were approved by the Ethical Committee of the NIH-ETSP program where the anticonvulsant activity was tested.

T4 sequence (P22748 19-312): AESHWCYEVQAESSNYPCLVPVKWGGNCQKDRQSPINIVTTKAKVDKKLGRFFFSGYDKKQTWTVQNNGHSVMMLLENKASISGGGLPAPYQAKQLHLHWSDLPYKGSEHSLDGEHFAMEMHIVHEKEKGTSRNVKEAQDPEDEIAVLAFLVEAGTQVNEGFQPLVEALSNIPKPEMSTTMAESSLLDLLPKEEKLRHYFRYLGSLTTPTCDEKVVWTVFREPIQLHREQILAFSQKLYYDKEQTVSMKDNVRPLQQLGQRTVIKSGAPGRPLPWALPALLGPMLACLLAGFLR
T3 sequence (P43166 whole entry, canonical isoform): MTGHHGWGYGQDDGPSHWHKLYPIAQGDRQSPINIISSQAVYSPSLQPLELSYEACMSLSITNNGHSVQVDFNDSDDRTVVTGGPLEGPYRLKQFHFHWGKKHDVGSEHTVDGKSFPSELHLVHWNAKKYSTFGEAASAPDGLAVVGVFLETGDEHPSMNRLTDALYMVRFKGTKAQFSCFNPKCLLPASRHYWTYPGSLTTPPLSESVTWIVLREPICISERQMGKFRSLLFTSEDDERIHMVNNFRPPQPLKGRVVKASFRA
T1 sequence (P00915 whole entry, canonical isoform): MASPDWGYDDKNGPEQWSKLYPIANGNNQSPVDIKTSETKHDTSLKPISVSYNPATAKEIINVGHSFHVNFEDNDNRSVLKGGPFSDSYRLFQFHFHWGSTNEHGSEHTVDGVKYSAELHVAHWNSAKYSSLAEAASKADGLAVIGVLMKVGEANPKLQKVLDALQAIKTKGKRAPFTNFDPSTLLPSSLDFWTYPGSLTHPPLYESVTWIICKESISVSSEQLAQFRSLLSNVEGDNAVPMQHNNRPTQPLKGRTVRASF

Structure (SMILES)	Ki [1]	Ki [2]	Ki [3]	Ki [4]	Neurotoxicity-TD50 [95% CI] (rats [5]; rats dosed i.p.)	Protective Index (PI = TD50/ED50) (rats [5]; rats dosed i.p.)	MES-ED50 [95% CI] ([6]; rats dosed i.p.)	MES-ED50 [95% CI] ([6]; rats dosed p.o.)	CL/F ([7]; plasma levels)	Cmax ([7]; plasma levels)	MRT ([7]; plasma levels)	Tmax ([7]; plasma levels)	half-life ([7]; plasma levels)	Vd/F ([7]; plasma levels)	AUC(0-inf) ([7]; 80 mg/kg, plasma levels)	AUCinf [8]	AUC(0-inf) ([8]; brain)	CL/F [8]	Cmax [8]	MRT [8]	other results
CCC(C)CCOC(=O)Nc1ccc(S(N)(=O)=O)cc1 (racemic) [Racemic-MSPC, 3-methylpentyl(4-sulfamoylphenyl)carbamate]	77 ± 4.7 nM	7.6 ± 0.5 nM	351 ± 26 nM	750 ± 42 nM	>250 mg/kg	>19	13 [8–22] mg/kg	28 [18–35] mg/kg	–	–	–	–	–	–	–	–	–	–	–	–	Neurotoxicity-TD50 [95% CI] (rats [5]; rats dosed p.o.): >500 mg/kg; Protective Index (PI = TD50/ED50) (rats [5]; rats dosed p.o.): >18
CC[C@H](C)OC(=O)Nc1ccc(S(N)(=O)=O)cc1 [(S)-MBPC]	–	–	–	–	–	–	–	–	33.3 mL/min/kg	12700 ng/mL	2.7 h	1 h	72 min	5.7 L/kg	40000 ng·h/mL	51.5 mg·h/L	52000 ng·h/mL	26.7 mL/min/kg	15200 ng/mL	4.2 h	AUCinf ([7]; plasma levels, 80 mg/kg): 39.6 mg·h/L; Kp ([8]; brain): 1.32; Tmax [8]: 1.66 h; half-life [8]: 54 min; Vd/F [8]: 5 L/kg; enantiostability (chiral inversion) [9]: no chiral inversion was observed; Ki [10]: 53.3 ± 2.9 nM; times more effective than the (R)-enantiomer against hCA VII ([10]; ratio of KI values): 3.7 times; Ki [11]: 71.8 ± 6.5 nM; times more effective than the (R)-enantiomer against hCA I ([11]; ratio of KI values): 2.9 times; Ki [12]: 34.9 ± 1.4 nM; Ki [13]: 249 ± 13 nM; TD50 [14]: > 200 mg/kg; Protective Index (PI = TD50/ED50) (rats [15]): >11; ED50 [16]: 19 mg/kg
CC[C@@H](C)OC(=O)Nc1ccc(S(N)(=O)=O)cc1 [(R)-MBPC]	–	–	–	–	–	–	–	–	55 mL/min/kg	10700 ng/mL	2 h	1.7 h	36 min	6.7 L/kg	24000 ng·h/mL	30.4 mg·h/L	30000 ng·h/mL	43.3 mL/min/kg	11400 ng/mL	2.1 h	higher clearance than its enantiomer ([7]; (R)- vs (S)-enantiomer): 65%; Kp ([8]; brain): 1.27; Tmax [8]: 2.7 h; half-life [8]: 30 min; Vd/F [8]: 5.4 L/kg; enantiostability (chiral inversion) [9]: no chiral inversion was observed; Ki [10]: 197 ± 14 nM; Ki [11]: 203 ± 13 nM; Ki [12]: 7.1 ± 0.4 nM; effectiveness relative to its (S)-enantiomer against hCA II ([12]; ratio of KI values): five times more effective; Ki [13]: 522 ± 26 nM; TD50 [14]: > 500 mg/kg; Protective Index (PI = TD50/ED50) (rats [15]): >13; ED50 [16]: 39 mg/kg
CC[C@H](C)CCOC(=O)Nc1ccc(S(N)(=O)=O)cc1 [(S)-MSPC]	130 ± 8 nM	20.3 ± 1.4 nM	744 ± 36 nM	593 ± 42 nM	149 [121–157] mg/kg	3.5	43 [33–52] mg/kg	24 [17–29] mg/kg	–	–	–	–	–	–	–	–	–	–	–	–	–
CCC(C)OC(=O)Nc1ccc(S(N)(=O)=O)cc1 (racemic) [Racemic-MBPC]	–	–	–	–	–	–	–	–	41.7 mL/min/kg	15300 ng/mL	1.7 h	0.33 h	30 min	4.3 L/kg	32000 ng·h/mL	47.8 mg·h/L	48000 ng·h/mL	28.3 mL/min/kg	16500 ng/mL	2 h	Kp ([8]; brain/plasma): 1.49; Tmax [8]: 1.33 h; half-life [8]: 42 min; Vd/F [8]: 3.4 L/kg; Ki [10]: 121 ± 8 nM; Ki [11]: 97.1 ± 5.3 nM; Ki [12]: 20.2 ± 1.5 nM; Ki [13]: 432 ± 28 nM; TD50 [14]: > 500 mg/kg; Protective Index (PI = TD50/ED50) (rats [15]): >20; ED50 [16]: 25 mg/kg
CC[C@@H](C)CCOC(=O)Nc1ccc(S(N)(=O)=O)cc1 [(R)-MSPC]	34.1 ± 2.5 nM	3.3 ± 0.2 nM	170 ± 9 nM	810 ± 55 nM	134 [108–158] mg/kg	3.4	39 [31–44] mg/kg	30 [22–37] mg/kg	–	–	–	–	–	–	–	–	–	–	–	–	–

Reference: publication PMC8037586, “Synthesis and Enantioselective Pharmacokinetic/Pharmacodynamic Analysis of New CNS-Active Sulfamoylphenyl Carbamate Derivatives” (International Journal of Molecular Sciences, 2021)
